# Patent US5210193A, “Piperazine derivatives” (American Cyanamid Company, priority 1990, dated 1993)
# Assays:
# Assay in all cases: in vitro antibacterial MIC, agar plate dilution
# Type in all cases: cell-based
# [1] = system: Escherichia coli CMC 84-11; details: Escherichia coli, CMC8411, 18 h, 35° C., read-out: MIC
# Experimental: (§1) The in vitro antimicrobial spectrum of the compounds of ths invention were determined by the agar plate dilution method with Mueller-Hinton agar and an inoculum of each test organism of approximately 10^4 colony forming units delivered by the Steers replicating device. The minimal inhibitory concentration (MIC) in mcg/ml is defined as the lowest concentration of test compound that inhibited visible growth after 18 hours incubation at 35° C. Results are given in Table I, with the test compounds identified by the number of their hereinafter described examples.
# [2] = system: Pseudomonas aeruginosa LL-1244; details: Pseudomonas aeruginosa, LL1244, 18 h, 35° C., read-out: MIC
# Experimental: as §1
# [3] = system: Staphylococcus aureus ATTC 29213; details: Staphylococcus aureus, ATTC29213, 18 h, 35° C., read-out: MIC
# Experimental: as §1
# [4] = system: Klebsiella pneumoniae AD; details: Klebsiella pneumoniae, 18 h, 35° C., read-out: MIC
# Experimental: as §1
# [5] = system: Staphylococcus epidermidis CMC 83-135; details: CMC83135, 18 hours, 35° C., read-out: MIC
# Experimental: as §1
# [6] = system: Escherichia coli CMC 84-16; details: Escherichia coli, CMC8416, 18 h, 35° C., read-out: MIC
# Experimental: as §1
# [7] = system: Staphylococcus epidermidis IO 83-58; details: IO8358, 18 hours, 35° C., read-out: MIC
# Experimental: as §1
# [8] = system: Escherichia coli ATCC 25922; details: Escherichia coli, ATCC25922, 18 h, 35° C., read-out: MIC
# Experimental: as §1
# [9] = system: Staphylococcus aureus VGH 84-46; details: Staphylococcus aureus, VGH8446, 18 h, 35° C., read-out: MIC
# Experimental: as §1
# [10] = system: Staphylococcus aureus Smith; details: Staphylococcus aureus, 18 h, 35° C., read-out: MIC
# Experimental: as §1
# [11] = system: Staphylococcus aureus CMC 83-127; details: Staphylococcus aureus, CMC83127, 18 h, 35° C., read-out: MIC
# Experimental: as §1
# [12] = system: Klebsiella pneumoniae MOR 84-4; details: Klebsiella pneumoniae, MOR844, 18 h, 35° C., read-out: MIC
# Experimental: as §1
# [13] = system: Staphylococcus epidermidis VGH 84-40; details: VGH8440, 18 hours, 35° C., read-out: MIC
# Experimental: as §1
# [14] = system: Streptococcus faecalis ATTC 29212; details: Enterococcus faecalis, ATTC29212, 18 hours, 35° C., read-out: MIC
# Experimental: as §1
# [15] = system: Streptococcus faecalis VGH 84-65; details: Enterococcus faecalis, VGH8465, 18 h, 35° C., read-out: MIC
# Experimental: as §1
# [16] = system: Staphylococcus Spp saprophiticus VGH 84-50; details: 18 hours, 35° C., read-out: MIC
# Experimental: as §1
# [17] = system: Escherichia coli NAR 311; details: NAR311, 18 hours, 35° C., read-out: MIC
# Experimental: as §1
# [18] = system: Klebsiella oxytoca MOR 84-28; details: MOR8428, 18 hours, 35° C.
# Experimental: as §1
# [19] = system: Proteus rettgeri CMC 84-41; details: Providencia rettgeri, CMC8441, 18 h, 35° C., read-out: MIC
# Experimental: as §1
# [20] = system: Staphylococcus aureus CMC 83-128; details: CMC83128, 18 hours, 35° C., read-out: MIC
# Experimental: as §1
# [21] = system: Escherichia coli PRNT 311; details: PRNT311, 18 hours, 35° C., read-out: MIC
# Experimental: as §1
# [22] = system: Morganella morganii VGH 84-11; details: VGH8411, 18 hours, 35° C., read-out: MIC
# Experimental: as §1
# [23] = system: Enterobacter cloacae VGH 84-37; details: Enterobacter cloacae, VGH8437, 18 h, 35° C., read-out: MIC
# Experimental: as §1
# [24] = system: Serratia marcescens K 84-18; details: Serratia marcescens, K8418, 18 h, 35° C., read-out: MIC
# Experimental: as §1
# [25] = system: Enterobacter cloacae K 84-10; details: Enterobacter cloacae, K8410, 18 h, 35° C., read-out: MIC
# Experimental: as §1
# [26] = system: Enterobacter aerogenes VGH 84-36; details: Klebsiella aerogenes, VGH8436, 18 hours, 35° C., read-out: MIC
# Experimental: as §1
# [27] = system: Serratia marcescens F 0-35; details: Serratia marcescens, F035, 18 h, 35° C., read-out: MIC
# Experimental: as §1
# [28] = system: Morganella morganii CMC 84-37; details: Morganella morganii, CMC8437, 18 h, 35° C., read-out: MIC
# Experimental: as §1
# [29] = system: Staphylococcus aureus VGH 84-45; details: Staphylococcus aureus, VGH8445, 18 h, 35° C., read-out: MIC
# Experimental: as §1
# [30] = system: Pseudomonas aeruginosa VGH 84-4; details: Pseudomonas aeruginosa, VGH844, 18 h, 35° C., read-out: MIC
# Experimental: as §1
Compound,MIC [1] [µg/mL],MIC [2] [µg/mL],MIC [3] [µg/mL],MIC [4] [µg/mL],MIC [5] [µg/mL],MIC [6] [µg/mL],MIC [7] [µg/mL],MIC [8] [µg/mL],MIC [9] [µg/mL],MIC [10] [µg/mL],MIC [11] [µg/mL],MIC [12] [µg/mL],MIC [13] [µg/mL],MIC [14] [µg/mL],MIC [15] [µg/mL],MIC [16] [µg/mL],MIC [17] [µg/mL],MIC [18] [µg/mL],MIC [19] [µg/mL],MIC [20] [µg/mL],also measured
"CCCCCCCCCCCCOCC1CN(c2cc3c(cc2F)c(=O)c(C(=O)O)cn3CC)CCN1C (stereo not drawn) [Example 75, 7-[3-[(Dodecyloxy)methyl]-4-methyl-1-piperazinyl]-1-ethyl-6-fluoro-1,4-dihydro-4-oxo-3-quinolinecarboxylic acid]",> 256,> 256,> 256,> 256,> 256,> 256,> 256,> 256,> 256,> 256,> 256,> 256,> 256,> 256,> 256,> 256,> 256,> 256,> 256,> 256,MIC [21]: > 256 µg/mL; MIC [22]: > 256 µg/mL; MIC [23]: > 256 µg/mL; MIC [24]: > 256 µg/mL; MIC [25]: > 256 µg/mL; MIC [26]: > 256 µg/mL; MIC [27]: > 256 µg/mL; MIC [28]: > 256 µg/mL; MIC [29]: > 256 µg/mL; MIC [30]: > 256 µg/mL
"CCCCCCOCC1CN(c2cc3c(cc2F)c(=O)c(C(=O)O)cn3CC)CCN1 (stereo not drawn) [Example 77, 1-Ethyl-6-fluoro-7-[3-[(hexyloxy)methyl]-1-piperazinyl]-1,4-dihydro-4-oxo-3-quinolinecarboxylic acid]",2,> 256,1,4,1,2,1,2,0.5,2,0.25,4,0.25,8,8,2,32,8,8,0.5,MIC [21]: 2 µg/mL; MIC [22]: 4 µg/mL; MIC [23]: 4 µg/mL; MIC [24]: 16 µg/mL; MIC [25]: 4 µg/mL; MIC [26]: 4 µg/mL; MIC [27]: 8 µg/mL; MIC [28]: 4 µg/mL; MIC [29]: 0.5 µg/mL; MIC [30]: 128 µg/mL
"CCCCCCOCC1CN(c2cc3c(cc2F)c(=O)c(C(=O)O)cn3CC)CCN1C (stereo not drawn) [Example 78, 1-Ethyl-6-fluoro-7-[3-[(hexyloxy)methyl]-4-methyl-1-piperazinyl]-1,4-dihydro-4-oxo-3-quinolinecarboxylic acid]",32,> 256,4,64,4,32,8,32,4,8,1,64,2,16,16,8,256,64,64,4,MIC [21]: 16 µg/mL; MIC [22]: 32 µg/mL; MIC [23]: 64 µg/mL; MIC [24]: > 256 µg/mL; MIC [25]: 64 µg/mL; MIC [26]: 64 µg/mL; MIC [27]: > 256 µg/mL; MIC [28]: 32 µg/mL; MIC [29]: 8 µg/mL; MIC [30]: > 256 µg/mL
